Test results taken from patent US9492805B2, “Initiated chemical vapor deposition of vinyl polymers for the encapsulation of particles” (Massachusetts Institute of Technology, priority 2005, dated 2016).

Assay: Release of ibuprofen from pellets of 25 μm microcrystals in pH buffers, light absorption at 220 nm
Assay type: physicochemical
Details: pH 7.4
Source text: In another example, 25 μm ibuprofen microcrystals were encapsulated with the iCVD P(MAA-EDMA) copolymer and likewise ibuprofen release was tracked over time at different pH conditions. FIG. 26a gives the time release profiles, comparing uncoated and coated ibuprofen at pH 1.2 and 7.4. […] This enhanced protection in acids would be important for drugs such as ibuprofen and other non-steroidal anti-inflammatory drugs that are known to cause stomach ulceration and hemorrhaging, leading to mucosal damage and severe blood loss with acute dosage and prolonged administration. [S. E. Gabriel, L. Jaakkimainen, C. Bombardier, Ann. Intern. Med. 1991, 115, 787-796; and [ M. M. Wolfe, D. R. Lichtenstein, G. Singh, N. Engl. J. Med. 1999, 340, 1888-1899.] The increase in drug dissolution and activity by using finer drug particles would likely exacerbate this problem. […]
Release Measurements. […] For fluorescein, release was monitored at 490 nm, comparing fluorescein layered on silicon substrates that were exposed or encapsulated with an iCVD P(MAA-EDMA) coating. For ibuprofen, 25 μm ibuprofen microcrystals (DuPont), that were bare or encapsulated with an iCVD P(MAA-EDMA) coating, were compressed into pellets and their release monitored at 220 nm. Absorption was measured on a Varian Cary 6000i.

For `CC(C)Cc1ccc(C(C)C(=O)O)cc1` (stereo not shown) [ibuprofen], the “release of ibuprofen at near neutral pH” value was “relatively fast”.
